Experimental data: ChEMBL document CHEMBL1122107, “Structure-antitumor activity relationships of 9-anilinoacridines using pattern recognition” (1982)
“And” between values parts separate entries of the source, which are not always exact repeats. Equal entries are not always repeated.

Test system: L1210
Test: Tumor cell selectivity determined as maximal percent increase in life span (ILSmax) at LD10 dosage level in L1210 cells
Type: functional, Mus musculus

Row | SMILES | ILSmax
1 | COc1ccc2c(Nc3ccc(NS(C)(=O)=O)cc3)c3ccc(OC)cc3nc2c1 | 56%
2 | COc1cc(NS(C)(=O)=O)ccc1N=c1c2ccccc2[nH]c2c(CN(C)C)cccc12 | 72%
3 | COc1cc(NS(C)(=O)=O)ccc1Nc1c2cccc(C)c2nc2c(C)c([N+](=O)[O-])ccc12 | 56%
4 | Cc1ccc2c(Nc3ccc(NS(C)(=O)=O)cc3)c3cccc(C)c3nc2c1 | 70%
5 | CCCCCNS(=O)(=O)c1ccc(N=c2c3ccccc3[nH]c3cc(N)ccc23)cc1 | 50%
6 | N=C(N)Nc1ccc(NC(=O)Nc2ccc(N=c3c4ccccc4[nH]c4cc([N+](=O)[O-])ccc34)cc2)cc1 | 200%
7 | CCOC(=O)N1CCN(C(=O)Nc2ccc(Nc3c4ccccc4nc4ccccc34)cc2)CC1 | 50%
8 | COc1ccc2nc3cc([N+](=O)[O-])ccc3c(Nc3ccc(NS(C)(=O)=O)cc3)c2c1 | 55%
9 | CS(=O)(=O)Nc1ccc(Nc2c3ccccc3nc3ccccc23)c(Cl)c1 | 25%
10 | COc1cc(NS(C)(=O)=O)ccc1Nc1c2ccccc2nc2cc(Br)c(N)cc12 | 99%
11 | O=C(Cc1ccccc1)Nc1ccc(Nc2c3ccccc3nc3ccccc23)cc1 | 25%
12 | CS(=O)(=O)Nc1ccc(N=c2c3ccccc3[nH]c3cc([N+](=O)[O-])ccc23)cn1 | 72%
13 | NCc1ccc(Nc2c3ccccc3nc3ccccc23)cc1 | 25%
14 | CS(=O)(=O)Nc1ccc(Nc2c3ccccc3nc3ccccc23)c(OCCO)c1 | 67%
15 | Nc1ccc2c(Nc3ccc(NC(=O)c4ccccc4)cc3)c3ccccc3nc2c1 | 115%
16 | COc1cc(NS(C)(=O)=O)ccc1Nc1c2ccccc2nc2cc(C(F)(F)F)c(N)cc12 | 90%
17 | CC(=O)N(C)c1ccc(Nc2c3ccccc3nc3ccccc23)cc1 | 50%
18 | COc1cc(NS(C)(=O)=O)ccc1Nc1c2ccccc2nc2c(C)c(C)ccc12 | 118%
19 | Cc1cc(C(=O)O)ccc1Nc1c2ccccc2nc2ccccc12 | 25%
20 | CCCCCCCCS(=O)(=O)Nc1ccc(Nc2c3ccccc3nc3ccccc23)c(OC)c1 | 40%
21 | CN(C)Cc1ccc(Nc2c3ccccc3nc3ccccc23)cc1 | 25%
22 | Nc1ccc(CCS(=O)(=O)Nc2ccc(Nc3c4ccccc4nc4ccccc34)cc2)cc1 | 25%
23 | CN(C)C(=O)CCS(=O)(=O)Nc1ccc(Nc2c3ccccc3nc3ccccc23)cc1 | 63%
24 | COc1cc(NS(C)(=O)=O)ccc1Nc1c2ccccc2nc2cc(Cl)ccc12 | 99%
25 | CS(=O)(=O)Nc1ccc(Nc2c3ccccc3nc3ccccc23)c(O)c1 | 85%

Row | SMILES | ILSmax
26 | Cc1ccc2c(Nc3ccc(NS(C)(=O)=O)cc3)c3ccccc3nc2c1C | 55%
27 | CCCCS(=O)(=O)Nc1ccc(Nc2c3ccccc3nc3cc(NC(C)=O)ccc23)cc1 | 83%
28 | CCCC(=O)N(c1ccc(Nc2c3ccccc3nc3cc(N)ccc23)cc1)S(C)(=O)=O | 55%
29 | NC(=O)CCCCCc1ccc(Nc2c3ccccc3nc3ccccc23)cc1 | 97%
30 | O=C(O)CCc1ccc(NC(=O)Nc2ccc(N=c3c4ccccc4[nH]c4ccccc34)cc2)cc1 | 125%
31 | CCCN(C)/N=N/c1ccc2c(Nc3ccc(NS(C)(=O)=O)cc3)c3ccccc3nc2c1 | 98%
32 | O=C(O)Cc1ccccc1Nc1c2ccccc2nc2ccccc12 | 25%
33 | CCOC(=O)NNc1ccc(Nc2c3ccccc3nc3ccccc23)cc1 | 75%
34 | CC(=O)N(c1ccc(Nc2c3ccc([N+](=O)[O-])cc3nc3c(C)cccc23)cc1)S(C)(=O)=O | 150%
35 | COc1cc(NS(C)(=O)=O)ccc1Nc1c2ccc(Cl)cc2nc2c(C)cccc12 | 75%
36 | Nc1ccc2c(Nc3ccc(C(=O)O)cc3)c3ccccc3nc2c1 | 25%
37 | N=C(N)NCCCS(=O)(=O)Nc1ccc(Nc2c3ccc(N)cc3nc3ccc(N)cc23)cc1 | 129%
38 | CCCCNC(=O)c1cccc2c(Nc3ccc(NS(=O)(=O)CCC)cc3OC)c3ccccc3nc12 | 71%
39 | O=C(O)CCCCCCc1ccc(Nc2c3ccccc3nc3ccccc23)cc1 | 74%
40 | O=C(O)CCCCCc1ccc(NC(=O)Nc2ccc(Nc3c4ccccc4nc4ccccc34)cc2)cc1 | 60%
41 | CS(=O)(=O)Nc1ccc(Nc2c3ccccc3nc3cc(I)ccc23)cc1 | 160%
42 | CCS(=O)(=O)Nc1ccc(Nc2c3ccccc3nc3c(C)cccc23)cc1 | 65%
43 | CC(=O)Nc1ccc2c(=Nc3ccc(CCC(=O)O)cc3)c3ccccc3[nH]c2c1 | 25%
44 | Fc1ccccc1Nc1c2ccccc2nc2ccccc12 | 25%
45 | CCCS(=O)(=O)Nc1ccc(Nc2c3ccccc3nc3cc(NC(C)=O)ccc23)cc1 | 115%
46 | COc1cc(/C=C/C(=O)O)ccc1Nc1c2ccccc2nc2ccccc12 | 27%
47 | Fc1ccc(Nc2c3ccccc3nc3ccccc23)cc1 | 25%
48 | Nc1ccc(S(=O)(=O)Nc2ccc(Nc3c4ccccc4nc4cc(Cl)ccc34)cc2)cc1 | 50%
49 | CC(=O)Nc1ccc2c(Nc3ccc(NS(C)(=O)=O)cc3)c3ccccc3nc2c1 | 60%
50 | CCCCC(=O)N(c1ccc(Nc2c3ccccc3nc3c(C)cccc23)c(OC)c1)S(C)(=O)=O | 50%

Row | SMILES | ILSmax
51 | O=C(O)CCCCc1ccc(Nc2c3ccccc3nc3ccccc23)cc1 | 187%
52 | CS(=O)(=O)Nc1ccc(Nc2c3ccccc3nc3cccc([N+](=O)[O-])c23)cc1 | 25%
53 | OC[C@@H]1O[C@H](Oc2ccc(Nc3c4ccccc4nc4ccccc34)cc2)[C@@H](O)[C@H](O)[C@H]1O | 60%
54 | CS(=O)(=O)Nc1ccc(Nc2c3ccccc3nc3ccccc23)cc1Cl | 25%
55 | COc1cc(NS(C)(=O)=O)ccc1Nc1c2ccc([N+](=O)[O-])cc2nc2c(C)cccc12 | 72% and 113%
56 | O=[N+]([O-])c1ccccc1Nc1c2ccccc2nc2ccccc12 | 25%
57 | O=C(O)CCc1cccc(Nc2c3ccccc3nc3ccccc23)c1 | 25%
58 | CCS(=O)(=O)Nc1ccc(Nc2c3ccccc3nc3c(C(N)=O)cccc23)c(OC)c1 | 166%
59 | CCCCCCNc1ccc(Nc2c3ccccc3nc3ccccc23)cc1 | 25%
60 | CCS(=O)(=O)Nc1ccc(Nc2c3ccccc3nc3cc(C)ccc23)cc1 | 84%
61 | NC(Cc1ccc(NC(=O)Nc2ccc(N=c3c4ccccc4[nH]c4cc([N+](=O)[O-])ccc34)cc2)cc1)C(=O)O (stereo not given) | 80%
62 | Cc1cccc2nc3ccccc3c(Nc3ccc(NS(C)(=O)=O)cc3)c12 | 25%
63 | N=C(N)NCCCCS(=O)(=O)Nc1ccc(Nc2c3ccccc3nc3cc(Cl)ccc23)cc1 | 25%
64 | CCCCCC(=O)Nc1ccc(Nc2c3ccccc3nc3ccccc23)cc1 | 110%
65 | c1ccc2c(Nc3ccc(N4CCNCC4)cc3)c3ccccc3nc2c1 | 25%
66 | NCCCCCCc1ccc(N=c2c3ccccc3[nH]c3cc([N+](=O)[O-])ccc23)cc1 | 25%
67 | NCCCCCc1ccc(NC(=O)Nc2ccc(N=c3c4ccccc4[nH]c4ccccc34)cc2)cc1 | 170%
68 | COc1cc(NS(C)(=O)=O)ccc1Nc1c2ccccc2nc2cc(C(C)C)ccc12 | 40%
69 | CNS(=O)(=O)c1ccc(N=c2c3ccccc3[nH]c3cc(N)ccc23)cc1 | 55%
70 | O=S(=O)(Cc1ccc(Nc2c3ccccc3nc3ccccc23)cc1)Nc1ccccn1 | 98%
71 | CCc1ccccc1Nc1c2ccccc2nc2ccccc12 | 25%
72 | O=C(O)COc1ccc(Nc2c3ccccc3nc3ccccc23)cc1 | 25%
73 | CCCCCS(=O)(=O)Nc1ccc(Nc2c3ccccc3nc3c(C(N)=O)cccc23)c(OC)c1 | 93%
74 | COc1cc(N)ccc1N=c1c2ccccc2[nH]c2c(C)cccc12 | 120%
75 | COc1ccc2c(Nc3ccc(NS(C)(=O)=O)cc3)c3ccccc3nc2c1 | 107%

Row | SMILES | ILSmax
76 | CC(=O)Nc1ccc(Nc2c3ccccc3nc3ccccc23)cc1 | 60%
77 | COc1cc(NS(C)(=O)=O)ccc1Nc1c2ccccc2nc2c(C(=O)NCC(O)CO)cccc12 (stereo not given) | 83%
78 | N#CC(C#N)=Cc1ccc(Nc2c3ccccc3nc3ccccc23)cc1 | 65%
79 | CCOc1cc(NS(C)(=O)=O)ccc1Nc1c2ccccc2nc2ccccc12 | 75%
80 | Nc1ccc2c(Nc3ccc([N+](=O)[O-])cc3)c3ccccc3nc2c1 | 25%
81 | CCCCCCS(=O)(=O)Nc1ccc(Nc2c3ccccc3nc3cc([N+](=O)[O-])ccc23)c(OC)c1 | 74%
82 | CS(=O)(=O)Nc1ccc(Nc2c3ccccc3nc3cc(NC(=O)/C=C/c4ccccc4)ccc23)cc1 | 25%
83 | CCc1ccc2c(Nc3ccc(NS(C)(=O)=O)cc3OC)c3ccccc3nc2c1 | 123%
84 | Nc1ccc(Nc2c3ccccc3nc3ccccc23)cc1 | 25%
85 | COc1cc(NS(C)(=O)=O)ccc1Nc1c2ccccc2nc2cccc([N+](=O)[O-])c12 | 50%
86 | CCS(=O)(=O)Nc1ccc(Nc2c3cccc(C)c3nc3c(C)cccc23)c(OC)c1 | 70%
87 | CS(=O)(=O)Nc1ccc(Nc2c3ccccc3nc3cc([N+](=O)[O-])ccc23)cc1 | 69%
88 | COc1cc(NS(C)(=O)=O)ccc1N=c1c2ccccc2[nH]c2ccc(C(C)(C)C)cc12 | 25%
89 | CS(=O)(=O)Nc1ccc(Nc2c3ccccc3nc3ccc(N)cc23)cc1 | 50%
90 | Nc1cccc(Nc2c3ccccc3nc3ccccc23)c1 | 50%
91 | CC(=O)c1ccc(N=c2c3ccccc3[nH]c3cc(N)ccc23)cc1 | 52%
92 | NCCCCCCc1ccc(N=c2c3ccccc3[nH]c3ccccc23)cc1 | 25%
93 | CS(=O)(=O)Nc1ccc(Nc2c3ccccc3nc3cc(N)ccc23)cc1 | 134%
94 | CC(=O)NCCS(=O)(=O)Nc1ccc(Nc2c3ccccc3nc3ccccc23)cc1 | 105%
95 | COc1cc(NS(C)(=O)=O)ccc1Nc1c2ccccc2nc2ccccc12 [AMSACRINE] | 111%
96 | Cc1cccc2c(Nc3ccc(NS(=O)(=O)CCCCN)cc3)c3cccc(C)c3nc12 | 72%
97 | COc1cc(NS(C)(=O)=O)ccc1Nc1c2ccccc2nc2c(CCC(N)=O)cccc12 | 105%
98 | COc1cc(NS(=O)(=O)CCCCN)ccc1Nc1c2ccccc2nc2c(C(N)=O)cccc12 | 25%
99 | COc1cc(Nc2c3ccccc3nc3ccccc23)ccc1N | 25%
100 | COc1cc(NS(C)(=O)=O)ccc1Nc1c2ccccc2nc2c(C(=O)NCCO)cccc12 | 100%
